Data published in ChEMBL document CHEMBL4406879, “A mouse model-based screening platform for the identification of immune activating compounds such as natural products for novel cancer immunotherapies” (Bioorg Med Chem, 2019).
The source made the active and inactive calls. The rule behind the calls is not given here.

How the values were obtained:
Jurkat = assay: Cytotoxicity against human Jurkat cells; format: functional, cell-based
Mus musculus [1] = organism: Mus musculus; assay: (§1) Immunostimulatory activity in CD4-positive T cells isolated from OVA-specific OT-II TCR transgenic mouse model assessed as T cell activation by measuring increase in IL-2 production at 1 uM compound incubated with GM-CSF cultured mouse bone marrow cells in presence of CpG 2216 for 24 hrs followed by addition of isolated CD4+ T cells and further incubation for 5 days by ELISA; format: functional, cell-based
Dendritic cell [2] = assay: Immunostimulatory activity in GM-CSF-cultured bone marrow-derived dendritic cells isolated from get40 cytokine reporter mouse model assessed as induction of IL12p40 production at 0.1 to 10 uM incubated for 16 hrs by flow cytometry relative to control; format: functional
Dendritic cell [3] = assay: Immunostimulatory activity in GM-CSF-cultured bone marrow-derived dendritic cells isolated from get40 cytokine reporter mouse model assessed as induction of IL12p40 production at 0.1 to 10 uM incubated for 16 hrs in presence of LPS by flow cytometry relative to control; format: functional
Bone marrow cell [4] = assay: Cytotoxicity against GM-CSF-cultured mouse cDC-rich bone marrow cells assessed as cell viability at 1 to 10 uM incubated for 24 hrs by MTT assay; format: cell-based
Bone marrow cell [5] = assay: Cytotoxicity against Flt3L-cultured mouse pDC-rich bone marrow cells assessed as cell viability at 1 to 10 uM incubated for 24 hrs by MTT assay; format: cell-based
Ramos = assay: Cytotoxicity against human Ramos cells; format: functional, cell-based
Bone marrow cell [6] = assay: Cytotoxicity against M-CSF-cultured mouse macrophage-rich bone marrow cells assessed as cell viability at 1 to 10 uM incubated for 24 hrs by MTT assay; format: cell-based
Dendritic cell [7] = assay: Immunostimulatory activity in GM-CSF-cultured bone marrow-derived dendritic cells isolated from get40 cytokine reporter mouse model assessed as induction of IL12p40 production at 0.1 to 10 uM incubated for 16 hrs in presence of CpG 2216 by flow cytometry relative to control; format: functional
[8] = test system: Mycobacterium tuberculosis; assay: Antibacterial activity against Mycobacterium tuberculosis; format: functional, organism-based
Mus musculus [9] = organism: Mus musculus; assay: as §1, with “10” for “1”, “cells” for “cells in presence of CpG 2216”; format: functional, cell-based

## C=C1[C@@H](C)[C@H]2[C@H](Cc3ccccc3)NC(=O)[C@]23[C@H](OC(C)=O)/C=C/[C@@](C)(O)C(=O)[C@@H](C)C/C=C/[C@H]3[C@@H]1O [CYTOCHALASIN D]
Jurkat
  Activity: Active
Mus musculus [1]
  Activity: Active
Dendritic cell [2]
  fold change (FC): 2
Dendritic cell [3]
  fold change (FC): 2
Bone marrow cell [4]
  Activity: Non-Toxic
Bone marrow cell [5]
  Activity: Non-Toxic
Ramos
  Activity: Active
Bone marrow cell [6]
  Activity: Non-Toxic
Dendritic cell [7]
  fold change (FC): 2

## [O-][n+]1ccc2c([nH]c3ccccc32)c1C1=C[C@@]2(O)CC/C=C\CCCCN3CC[C@@H]1[C@]1(CC/C=C\CCCCN[C@H]12)C3
Jurkat
  Activity: Active
[8]
  Activity: Active
Dendritic cell [2]
  fold change (FC): 2
Dendritic cell [3]
  fold change (FC): 2
Mus musculus [9]
  Activity: inactive
Bone marrow cell [4]
  Activity: Non-Toxic
Bone marrow cell [5]
  Activity: Non-Toxic
Ramos
  Activity: Active
Bone marrow cell [6]
  Activity: Non-Toxic
Dendritic cell [7]
  fold change (FC): 2

## C=C1[C@@H](C)[C@H]2[C@H](Cc3ccccc3)NC(=O)[C@]23[C@H](OC(C)=O)/C=C/[C@@H](C)C[C@@H](C)C/C=C/[C@H]3[C@@H]1O
Jurkat
  Activity: Active
Mus musculus [1]
  Activity: Active
Dendritic cell [2]
  fold change (FC): 2
Dendritic cell [3]
  fold change (FC): 2
Bone marrow cell [4]
  Activity: Non-Toxic
Bone marrow cell [5]
  Activity: Non-Toxic
Ramos
  Activity: Active
Bone marrow cell [6]
  Activity: Non-Toxic
Dendritic cell [7]
  fold change (FC): 2
